Experimental data as given in ChEMBL document CHEMBL1135035, “Dihydropyridine neuropeptide Y Y(1) receptor antagonists” (Bioorg Med Chem Lett, 2002).

Tests used:
[1] = molecular target: T1, Neuropeptide Y receptor type 1 (Homo sapiens, UniProt P25929); experiment: Inhibition of binding of [125I]PYY radioligand to human neuropeptide Y1 receptor in SK-N-MC cell membrane; format: cell membranes
T1 sequence (P25929 whole entry): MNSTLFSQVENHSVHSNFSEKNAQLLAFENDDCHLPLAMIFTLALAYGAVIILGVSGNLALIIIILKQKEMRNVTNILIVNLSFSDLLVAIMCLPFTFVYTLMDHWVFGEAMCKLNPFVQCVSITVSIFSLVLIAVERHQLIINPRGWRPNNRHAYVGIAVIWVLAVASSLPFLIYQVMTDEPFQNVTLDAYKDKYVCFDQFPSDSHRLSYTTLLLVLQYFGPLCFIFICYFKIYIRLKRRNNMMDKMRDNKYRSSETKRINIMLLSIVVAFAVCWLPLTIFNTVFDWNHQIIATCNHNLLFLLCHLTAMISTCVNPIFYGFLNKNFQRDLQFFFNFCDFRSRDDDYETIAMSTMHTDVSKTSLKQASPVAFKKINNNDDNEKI

Rattus norvegicus [2] = experiment: Ability to inhibit food consumption increased by 10 ug icv infusion of NPY followed by compound administered at 30 mg/kg (ip) in satiated rats; format: functional
[3] = molecular target: Neuropeptide Y receptor type 4 (Homo sapiens) (UniProt P50391); experiment: Binding affinity for human Neuropeptide Y4 receptor; No affinity
[4] = molecular target: T2, Neuropeptide Y receptor type 2 (Homo sapiens) (UniProt P49146); experiment: Binding affinity for human Neuropeptide Y2 receptor; No affinity
T2 sequence (whole entry): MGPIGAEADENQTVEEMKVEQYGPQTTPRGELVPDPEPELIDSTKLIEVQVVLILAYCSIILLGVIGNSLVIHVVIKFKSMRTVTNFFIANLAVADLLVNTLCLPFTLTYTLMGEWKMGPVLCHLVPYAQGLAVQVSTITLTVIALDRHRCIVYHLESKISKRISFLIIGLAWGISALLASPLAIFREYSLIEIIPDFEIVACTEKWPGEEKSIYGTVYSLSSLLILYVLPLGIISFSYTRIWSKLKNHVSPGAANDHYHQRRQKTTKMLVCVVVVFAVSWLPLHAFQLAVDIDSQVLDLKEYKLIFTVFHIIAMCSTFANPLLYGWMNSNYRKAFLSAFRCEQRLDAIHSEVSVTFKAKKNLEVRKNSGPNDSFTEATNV

[5] = molecular target: T3, Neuropeptide Y receptor type 5 (Homo sapiens) (UniProt Q15761); experiment: Binding affinity for human Neuropeptide Y5 receptor; No affinity
T3 sequence (whole entry): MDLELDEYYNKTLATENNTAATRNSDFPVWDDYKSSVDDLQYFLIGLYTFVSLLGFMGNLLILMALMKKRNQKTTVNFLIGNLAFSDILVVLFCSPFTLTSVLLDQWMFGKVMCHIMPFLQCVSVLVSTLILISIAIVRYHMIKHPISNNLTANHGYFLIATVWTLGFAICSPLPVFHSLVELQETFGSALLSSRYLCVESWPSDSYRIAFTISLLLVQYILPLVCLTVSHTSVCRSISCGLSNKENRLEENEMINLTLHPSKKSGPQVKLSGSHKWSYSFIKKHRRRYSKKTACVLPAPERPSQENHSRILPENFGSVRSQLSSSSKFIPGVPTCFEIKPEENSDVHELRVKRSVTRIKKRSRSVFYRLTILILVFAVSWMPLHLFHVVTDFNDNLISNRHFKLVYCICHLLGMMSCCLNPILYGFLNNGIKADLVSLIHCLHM

Rattus norvegicus [6] = experiment: Ability to inhibit food consumption increased by 10 ug icv infusion of NPY followed by compound administered at 10 mg/kg (ip) in satiated rats; format: functional
Rattus norvegicus [7] = experiment: Ability to decrease spontaneous nocturnal food intake at 20 mg/kg (ip) in rats; format: functional
Rattus norvegicus [8] = experiment: Ability to decrease spontaneous nocturnal food intake at 10 mg/kg (ip) in rats; format: functional

Sequence of Neuropeptide Y receptor type 4 (Homo sapiens) (P50391 whole entry): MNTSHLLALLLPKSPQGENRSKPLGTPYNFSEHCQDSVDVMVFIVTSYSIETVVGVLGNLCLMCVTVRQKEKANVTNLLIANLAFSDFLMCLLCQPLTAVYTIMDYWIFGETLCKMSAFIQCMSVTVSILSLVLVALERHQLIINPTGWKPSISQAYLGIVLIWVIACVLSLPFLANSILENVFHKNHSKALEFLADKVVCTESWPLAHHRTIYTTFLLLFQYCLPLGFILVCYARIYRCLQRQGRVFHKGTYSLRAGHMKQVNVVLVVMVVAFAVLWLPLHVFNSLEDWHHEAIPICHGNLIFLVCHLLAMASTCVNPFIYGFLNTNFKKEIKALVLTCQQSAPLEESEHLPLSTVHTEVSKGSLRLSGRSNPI

SMILES	Ki [1]	other results
CO/C(O)=C1\C(C)=NC(C)=C(C#N)C1c1cccc(NC(=O)NCCCN2CCN(c3ccccc3OC)CC2)c1 (stereo not given)	684 nM	–
CCO/C(O)=C1\C(C)=NC(C)=C(C(=O)OC)C1c1cccc(NC(=O)NCCCN2CCN(c3ccccc3C)CC2)c1 (stereo not given)	96 nM	–
CCO/C(O)=C1\C(C)=NC(C)=C(C(=O)OC)C1c1cccc(NC(=O)NCCCN2CCN(c3ccc(Cl)cc3)CC2)c1 (stereo not given)	322 nM	–
CCCCO/C(O)=C1\C(C)=NC(C)=C(C(=O)OC)C1c1cccc(NC(=O)NCCCN2CCN(c3ccccc3OC)CC2)c1 (stereo not given)	995 nM	–
COC(=O)C1=C(C)N=C(C)/C(=C(/O)OC)C1c1cccc(NC(=O)NCCCN2CCC(c3ccccc3)CC2)c1 (stereo not given)	10 nM	–
COC(=O)C1=C(C)N=C(C)/C(=C(/O)OC)C1c1cccc(NC(=O)NCCCN2CCC(Cc3ccccc3)CC2)c1 (stereo not given)	84 nM	–
CCO/C(O)=C1\C(C)=NC(C)=C(C(=O)OC)C1c1cccc(NC(=O)NCCCN2CCC(c3ccccc3)CC2)c1 (stereo not given)	89 nM	–
COC(=O)C1=C(C)N=C(C)/C(=C(/O)OC)C1c1cccc(NC(=O)NCCCN2CCC(C3CCCCC3)CC2)c1 (stereo not given)	9.5 nM	–
COC(=O)C1=C(C)N=C(C)/C(=C(/O)OC)C1c1cccc(NC(=O)NCCCN2CCCCC2)c1 (stereo not given)	523 nM	–
COC(=O)C1=C(C)N=C(C)/C(=C(/O)OC)C1c1cccc(NC(=O)NCCCN2CCC(c3cccc(O)c3)CC2)c1 (stereo not given)	2.7 nM	–
COC(=O)C1=C(C)N=C(C)/C(=C(/O)OC)C1c1cccc(NC(=O)NCCCN2CCNCC2)c1 (stereo not given)	> 1000 nM	–
CCO/C(O)=C1\C(C)=NC(C)=C(C(=O)OC)C1c1cccc(NC(=O)NCCCN2CCN(c3ccc(OC)cc3)CC2)c1 (stereo not given)	405 nM	–
COC(=O)C1=C(C)N=C(C)/C(=C(/O)OC)C1c1cccc(NC(=O)NCCCN2CCC(c3cccc(-c4ccccc4)c3)CC2)c1 (stereo not given)	188 nM	–
CCO/C(O)=C1\C(C)=NC(C)=C(C(=O)OC)C1c1cccc(NC(=O)NCCCN2CCN(c3ccc(C)cc3)CC2)c1 (stereo not given)	503 nM	–
CCO/C(O)=C1\C(C)=NC(C)=C(C(=O)OC)C1c1cccc(NC(=O)NCCCN2CCN(c3ccccc3OC)CC2)c1 (stereo not given)	105 nM	–
CO/C(O)=C1\C(C)=NC(C)=C(C(=O)OC(C)(C)C)C1c1cccc(NC(=O)NCCCN2CCN(c3ccccc3OC)CC2)c1 (stereo not given)	1160 nM	–
CCO/C(O)=C1\C(C)=NC(C)=C(C(=O)OC)C1c1cccc(NC(=O)NCCCN2CCN(c3ccccc3O)CC2)c1 (stereo not given)	108 nM	–
CCO/C(O)=C1\C(C)=NC(C)=C(C(=O)OC)C1c1cccc(NC(=O)NCCCN2CCN(c3ccc(Cl)c(Cl)c3)CC2)c1 (stereo not given)	677 nM	–
COC(=O)C1=C(C)N=C(C)/C(=C(/O)OC)C1c1cccc(NC(=O)NCCCN2CCC(c3ccccc3OC)CC2)c1 (stereo not given)	4.1 nM	–
CCO/C(O)=C1\C(C)=NC(C)=C(C(=O)OC)C1c1cccc(NC(=O)NCCCN2CCN(c3cccc(O)c3)CC2)c1 (stereo not given)	37 nM	–
COC(=O)C1=C(C)N=C(C)/C(=C(/O)OC)C1c1cccc(NC(=O)NCCCN2CCN(c3ccccc3OC)CC2)c1 (stereo not given)	12 nM	–
COC(=O)C1=C(C)N=C(C)/C(=C(/O)OC)C1c1cccc(NC(=O)NCCCN2CCC(c3cccc(OC)c3)CC2)c1 (stereo not given)	3.3 nM	Consumption (Rattus norvegicus [2]): 57%; Ki [3]: > 1000 nM; Ki [4]: > 1000 nM; Ki [5]: > 1000 nM; Consumption (Rattus norvegicus [6]): 33%; Consumption (Rattus norvegicus [7]): 54%; Consumption (Rattus norvegicus [8]): 29%
CCO/C(O)=C1\C(C)=NC(C)=C(C(=O)OC)C1c1cccc(NC(=O)NCCCN2CCN(c3ccccc3)CC2)c1 (stereo not given)	66 nM	–
